The results in this text go back to patent US8487121B2, “Chromane derivatives as TRPV3 modulators” (Glenmark Pharmaceuticals S.A., priority 2007, dated 2013).

The experiment deals with T1, Human TRPV3 (Homo sapiens, UniProt Q8NET8).
T1 construct: expressed in transfected cells; host or cells: CHO cells (G-418 selected)
T1 sequence (Q8NET8 1-790): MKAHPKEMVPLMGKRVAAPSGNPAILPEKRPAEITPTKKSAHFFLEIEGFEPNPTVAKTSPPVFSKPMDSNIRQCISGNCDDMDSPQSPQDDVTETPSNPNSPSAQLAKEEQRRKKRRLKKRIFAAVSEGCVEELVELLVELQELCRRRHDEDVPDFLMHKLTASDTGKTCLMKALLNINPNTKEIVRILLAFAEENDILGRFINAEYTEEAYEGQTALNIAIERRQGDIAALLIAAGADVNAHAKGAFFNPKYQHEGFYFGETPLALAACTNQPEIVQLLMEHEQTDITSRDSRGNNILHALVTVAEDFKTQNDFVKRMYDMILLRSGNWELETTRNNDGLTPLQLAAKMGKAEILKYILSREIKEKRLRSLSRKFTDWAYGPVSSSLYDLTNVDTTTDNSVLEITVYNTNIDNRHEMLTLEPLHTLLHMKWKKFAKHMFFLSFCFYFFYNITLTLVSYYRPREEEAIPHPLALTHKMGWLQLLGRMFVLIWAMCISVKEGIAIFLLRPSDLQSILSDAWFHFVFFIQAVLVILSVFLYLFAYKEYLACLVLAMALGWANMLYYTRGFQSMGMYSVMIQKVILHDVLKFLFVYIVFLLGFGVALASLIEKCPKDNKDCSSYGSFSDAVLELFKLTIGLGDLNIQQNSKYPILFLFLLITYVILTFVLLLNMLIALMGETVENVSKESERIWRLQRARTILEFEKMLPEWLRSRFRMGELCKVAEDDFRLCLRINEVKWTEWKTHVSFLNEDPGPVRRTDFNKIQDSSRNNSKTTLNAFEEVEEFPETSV
Kind of experiment: 45Calcium uptake assay: inhibition of 2-APB induced cellular uptake of radioactive calcium. It is filed as cell-based. The following applies: human TRPV3 expressing CHO cells, 2-APB 500 μM; for inhibition at 1 µM: 1.0 μM compound, read-out: Percentage inhibition at 1.0 μM; for inhibition at 10 µM: 10.0 μM compound, read-out: Percentage inhibition at 10.0 μM. The method, boiled down: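 CHO cells stably expressing human TRPV3 (~50,000/well) were preincubated with compounds for 10 min in medium containing 0.1% BSA, 1.8 mM CaCl2 and 0.5% DMSO. Then 500 μM 2-APB and 5 μCi/ml 45Ca2+ were added for 4 min. Lysate radioactivity was expressed as % of maximal uninhibited response, and IC50 came from nonlinear regression, alongside % inhibition at 1.0 and 10.0 μM.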

Each structure is given as a SMILES string.

By inhibition is commonly meant the drop in the measured response relative to a control, in per cent. The IC50 is the concentration that inhibits the measured activity by half.

Take `COc1ccc(CCC(=O)N[C@H]2CC3(CCC3)Oc3ccc(Cl)cc32)c2ccccc12` [Example 70, N-[(4S)-6-Chloro-3,4-dihydrospiro[chromene-2,1′-cyclobutan]-4-yl)-3-(4-methoxy)-1-naphthylpropanamide]: the inhibition at 1 µM came to 66.1%, the inhibition at 10 µM was 91.2% and the 50% inhibitory concentration (IC50) was 500 to 1000 nM.

Turning to `O=C(CCc1ccc(OC(F)F)c2ccccc12)N[C@@H]1CC2(CCC2)Oc2ccc(Cl)cc21` [Example 71, (4R)-6-Chloro-N-(3,4-dihydrospiro[chromene-2,1′-cyclobutan]-4-yl)-3-(4-difluoro-methoxy-1-naphthyl)propanamide], the inhibition at 1 µM was 53.5% and the inhibition at 10 µM came to 95.5%.

With `O=C(CCc1ccc(OC(F)F)c2ccccc12)N[C@H]1CC2(CCC2)Oc2ccc(Cl)cc21` [Example 72, (4S)-6-Chloro-N-(3,4-dihydrospiro[chromene-2,1′-cyclobutan]-4-yl)-3-(4-difluoromethoxy-1-naphthyl)propanamide], the inhibition at 1 µM was 60.3%, the inhibition at 10 µM amounted to 93.3% and the 50% inhibitory concentration (IC50) fell in the range of 500 to 1000 nM.

For `O=C(CCc1ccc2ccccc2c1)NC1CC2(CCC2)Oc2ccc(Cl)cc21` (stereo not drawn) [Example 73, N-(6-Chloro-3,4-dihydrospiro[chromene-2,1′-cyclobutan]-4-yl)-3-(2-naphthyl)propanamide], the inhibition at 1 µM stood at 61.3%, the inhibition at 10 µM was determined as 83.3% and the IC50 fell in the range of 500 to 1000 nM.

For `COc1ccc2cc(CCC(=O)N[C@@H]3CC4(CCC4)Oc4ccc(Cl)cc43)ccc2c1` [Example 74], the inhibition at 1 µM came to 64.1%, the inhibition at 10 µM came to 90.4% and the IC50 is 1000 to 2000 nM.

For the molecule `COc1ccc2cc(CCC(=O)N[C@H]3CC4(CCC4)Oc4ccc(Cl)cc43)ccc2c1` [Example 75], the inhibition at 1 µM came to 46.6% and the inhibition at 10 µM turned out to be 90.4%.

In the case of `O=C(CCc1ccc2ccccc2n1)NC1CC2(CCC2)Oc2ccc(Cl)cc21` (stereo not drawn) [Example 76, N-(6-Chloro-3,4-dihydrospiro[chromene-2,1′-cyclobutan]-4-yl)-3-(quinolin-2-yl)propanamide], the inhibition at 1 µM was determined as 23.5% and the inhibition at 10 µM worked out at 58.8%.

With `O=C(CCc1c[nH]c2ccccc12)NC1CC2(CCC2)Oc2ccc(Cl)cc21` (stereo not drawn) [Example 77, N-(6-Chloro-3,4-dihydrospiro[chromene-2,1′-cyclobutan]-4-yl)-3-(1H-indol-3-yl)-propanamide], the inhibition at 1 µM was found to be 39.4% and the inhibition at 10 µM worked out at 81.8%.

Take `COc1ccc(CCC(=O)NC2CC3(CCC3)Oc3ccc(Cl)cc32)c2cc(C)oc12` (stereo not drawn) [Example 78, N-(6-chloro-3,4-dihydrospiro[chromene-2,1′-cyclobutan]-4-yl)-3-(2-methyl, 7-methoxy-1-benzofuran-4-yl)propanamide]: the inhibition at 1 µM was 46.1%, the inhibition at 10 µM is 91.3% and the IC50 was in the range of 500 to 1000 nM.

As to `COc1cc(CCC(=O)N[C@@H]2CC3(CCC3)Oc3ccc(Cl)cc32)cc2cc(C)oc12` [Example 79, N-[(4R)-6-Chloro-3,4-dihydrospiro[chromene-2,1′-cyclobutan]-4-yl]-3-(7-methoxy-2-methyl-1-benzofuran-5-yl)propanamide], the inhibition at 1 µM worked out at 51.5% and the inhibition at 10 µM came out at 95.5%.

For `COc1cc(CCC(=O)N[C@H]2CC3(CCC3)Oc3ccc(Cl)cc32)cc2cc(C)oc12` [Example 80, N-[(4S)-6-chloro-3,4-dihydrospiro[chromene-2,1′-cyclobutan]-4-yl]-3-(7-methoxy-2-methyl-1-benzofuran-5-yl)propanamide], the inhibition at 1 µM stood at 73.5%, the inhibition at 10 µM was 98.6% and the IC50 is 500 to 1000 nM.

With `O=C(CCc1ccc2c(c1)OCCO2)NC1CC2(CCC2)Oc2ccc(F)cc21` (stereo not drawn) [Example 81], the inhibition at 1 µM is 29.1% and the inhibition at 10 µM was 54.8%.

Consider `O=C(CCc1cccc2c1OCO2)NC1CC2(CCC2)Oc2ccc(Cl)cc21` (stereo not drawn) [Example 82, 3-(1,3-Benzodioxol-4-yl)-N-[6-chloro-3,4-dihydrospiro[chromene-2,1′-cyclobutan]-4-yl]propanamide], for which the inhibition at 1 µM is 24.3% and the inhibition at 10 µM came to 90.9%.

Turning to `O=C(CCc1cccc2c1OCO2)NC1CC2(CCC2)Oc2c(Cl)cccc21` (stereo not drawn) [Example 83, 3-(1,3-Benzodioxol-4-yl)-N-(8-chloro-3,4-dihydrospiro[chromene-2,1′-cyclobutan]-4-yl)propanamide], the inhibition at 1 µM was found to be 11% and the inhibition at 10 µM amounted to 83.2%.

Turning to `O=C(CCc1cccc2c1OCCO2)NC1CC2(CCC2)Oc2ccc(Cl)cc21` (stereo not drawn) [Example 84], the inhibition at 1 µM came to 11% and the inhibition at 10 µM was 83.2%.

Consider `O=C(CCc1cccc2c1oc1ccccc12)NC1CC2(CCC2)Oc2ccc(Cl)cc21` (stereo not drawn) [Example 85, N-(6-Chloro-3,4-dihydrospiro[chromene-2,1′-cyclobutan]-4-yl)-3-(dibenzo[b,d]furan-4-yl)propanamide], for which the inhibition at 1 µM amounted to 76.9%, the inhibition at 10 µM was 90.4% and the IC50 is less than 500 nM.

For `COc1cccc(CCC(=O)NC2CC3(CCCC3)Oc3ccc(Cl)cc32)c1OC1CCCC1` (stereo not drawn) [Example 86, N-(6-Chloro-3,4-dihydrospiro[chromene-2,1′-cyclopentan]-4-yl)-3-(2-cyclopentyloxy-3-methoxy)propanamide], the inhibition at 1 µM is 11.6% and the inhibition at 10 µM stood at 66%.

Turning to `COc1cccc(CCC(=O)NC2CC3(CCCCC3)Oc3ccc(Cl)cc32)c1OC1CCCC1` (stereo not drawn) [Example 87, N-(6-Chloro-3,4-dihydrospiro[chromene-2,1′-cyclohexan]-4-yl)-3-(2-cyclopentyloxy-3-methoxy)phenylpropanamide], the inhibition at 1 µM was determined as 26.7% and the inhibition at 10 µM is 67.3%.

For `COc1cccc(CCC(=O)NC2CC(C)(C)Oc3ccccc32)c1OC1CCCC1` (stereo not drawn) [Example 88, N-(2,2-Dimethyl-3,4-dihydro-2H-chromen-4-yl)-3-(2-cyclopentyloxy-3-methoxy)phenylpropanamide], the inhibition at 1 µM turned out to be 17.1% and the inhibition at 10 µM worked out at 93.2%.

`COc1cccc(CCC(=O)NC2CCSc3ccc(Cl)cc32)c1OC1CCCC1` (stereo not drawn) [Example 89, N-(6-chloro-3,4-dihydro-2H-thiochromen-4-yl)-3-(2-cyclopentyloxy-3-methoxyphenyl)-propanamide]: the inhibition at 1 µM was found to be 38% and the inhibition at 10 µM stood at 87.3%.

With `COc1ccc2ccccc2c1CCC(=O)NC1CCSc2ccc(Cl)cc21` (stereo not drawn) [Example 90, N-(6-chloro-3,4-dihydro-2H-thiochromen-4-yl)-3-(2-methoxy-1-naphthyl)propanamide], the inhibition at 1 µM turned out to be 49.2% and the inhibition at 10 µM was determined as 91.4%.

For the molecule `O=C(CCCc1ccccc1OC1CCCC1)NC1CC2(CCC2)Oc2ccc(Cl)cc21` (stereo not drawn) [Example 91, N-(6-Chloro-3,4-dihydrospiro[chromene-2,1′-cyclobutan]-4-yl)-4-(2-cyclopentyloxy-phenyl)butanamide], the inhibition at 1 µM amounted to 51% and the inhibition at 10 µM came out at 82.5%.

Regarding `COc1cccc(CCCC(=O)NC2CC3(CCC3)Oc3ccc(Cl)cc32)c1OC1CCCC1` (stereo not drawn) [Example 92, N-(6-Chloro-3,4-dihydrospiro[chromene-2,1′-cyclobutan]-4-yl)-4-[2-(cyclopentyloxy)-3-methoxyphenyl]butanamide], the inhibition at 1 µM stood at 86.1%, the inhibition at 10 µM was 95.8% and the IC50 was less than 500 nM.

As for `COc1cccc(CCCC(=O)N[C@@H]2CC3(CCC3)Oc3ccc(Cl)cc32)c1OC1CCCC1` [Example 93, N-(4R)-6-Chloro-3,4-dihydrospiro[chromene-2,1′-cyclobutan]-4-yl-4-(2-cyclopentyloxy-3-methoxyphenyl)butanamide], the inhibition at 1 µM was found to be 72.8%, the inhibition at 10 µM is 94.2% and the IC50 was 500 to 1000 nM.

For the molecule `COc1cccc(CCCC(=O)N[C@H]2CC3(CCC3)Oc3ccc(Cl)cc32)c1OC1CCCC1` [Example 94], the inhibition at 1 µM amounted to 79.7%, the inhibition at 10 µM was 97.2% and the IC50 is less than 500 nM.

With `COc1cccc(CCCC(=O)N[C@@H]2CC3(CCC3)Oc3c(Cl)cccc32)c1OC1CCCC1` [Example 95, (4R)—N-(8-Chloro-3,4-dihydrospiro[chromene-2,1′-cyclobutan]-4-yl)-4-(2-cyclopentyloxy-3-methoxyphenyl)butanamide], the inhibition at 1 µM amounted to 71.8%, the inhibition at 10 µM came to 96.5% and the IC50 lay in the range of 500 to 1000 nM.
